The test system of series [1] is BV-2. Kind of series: Anti-neuroinflammatory activity in mouse BV-2 cells assessed as inhibition of LPS-stimulated TNF-alpha production at 2.5 ug/ml measured after 24 hrs by ELISA. Also on record: scale not given: the % may be the effect or the level left. The note with it: dose 2.5 µg/ml. It is filed as functional.
Series [2] concerns BV-2. Kind of series: Anti-neuroinflammatory activity in mouse BV-2 cells assessed as inhibition of LPS-stimulated IL-6 production at 2.5 ug/ml measured after 24 hrs by ELISA. The series is classed as functional. Also on record: scale not given: the % may be the effect or the level left. The note with it: dose 2.5 µg/ml.
Series [3] in a line: Cytotoxicity against mouse BV-2 cells assessed as survival rate at 2.5 ug/ml incubated for 24 hrs by MTT assay. It is filed as toxicity, cell-based. The note with it: at 2.5 µg/mL, read-out: Activity.
Series [4] has as its system BV-2. The experiment in a line: Neuroprotective activity against LPS-induced mouse BV-2 cell death assessed as late apoptotic cells at 2.5 uM and measured after 24 hrs by Annexin V-FITC/PI staining based flow cytometry method (reference value: 0%). The series is classed as functional.
For series [5], the system named is BV-2. The experiment in a line: Anti-neuroinflammatory activity in mouse BV-2 cells assessed as inhibition of LPS-induced caspase-1 expression level at 1.25 to 5 ug/ml and measured after 24 hrs by western blot analysis. The series is classed as functional, cell-based. To be noted: dose 1.25-5 µg/ml, DDE = dose-dependent effect. (In western blotting, separated proteins are transferred to a membrane and probed.)

Series [6] deals with BV-2. The experiment in a line: Anti-neuroinflammatory activity in mouse BV-2 cells assessed as inhibition of LPS-induced NLRP3 expression level at 1.25 to 5 ug/ml and measured after 24 hrs by western blot analysis. The series is classed as functional, cell-based. The note with it: dose 1.25-5 µg/ml, DDE = dose-dependent effect.
The subject of series [7] is BV-2. The experiment in a line: Anti-neuroinflammatory activity in mouse BV-2 cells assessed as inhibition of LPS-induced ASC expression level at 1.25 to 5 ug/ml and measured after 24 hrs by western blot analysis. The series is classed as functional, cell-based. The note with it: dose 1.25-5 µg/ml, DDE = dose-dependent effect.
Series [8] deals with BV-2. Kind of series: Neuroprotective activity against LPS-induced mouse BV-2 cell death assessed as reversal of apoptosis at 5 uM and measured after 24 hrs by Annexin V-FITC/PI staining based flow cytometry method (reference value: 91.6%). The series is classed as functional. (Flow cytometry measures light scatter and fluorescence of single cells or particles in a stream.)

Series [9] has as its system BV-2. Kind of series: Anti-neuroinflammatory activity in mouse BV-2 cells assessed as reduction of LPS-stimulated IkappaBalpha phosphorylation level at 1.25 to 5 ug/ml and measured after 24 hrs by westernblot analysis. It is filed as functional, cell-based. To be noted: dose 1.25-5 µg/ml, DDE = dose-dependent effect.
Series [10] relates to BV-2. Kind of series: Neuroprotective activity against LPS-induced mouse BV-2 cell death assessed as reversal of apoptosis at 2.5 uM and measured after 24 hrs by Annexin V-FITC/PI staining based flow cytometry method (reference value: 91.6%). The series is classed as functional.
In series [11] the test system is BV-2. The experiment in a line: Neuroprotective activity against LPS-induced mouse BV-2 cell death assessed as late apoptotic cells at 5 uM and measured after 24 hrs by Annexin V-FITC/PI staining based flow cytometry method (reference value: 0%). The series is classed as functional.

For the compound `COc1ccc(/C=C2\CCc3ccc(F)cc3C2=O)cc1C(F)(F)F`, the Activity with BV-2 [1] is on record as 38.6%; in the series with BV-2 [2], 42.3%. For the same compound, the viability at 24 h, 2.5 ug/ml in series [3] is 94.7%.

Turning to `COc1ccc2c(c1)-c1nc(N)nc(-c3ccc(OC)c(C(F)(F)F)c3)c1CC2`, the Activity in the series with BV-2 [1] is 46.7%; in the series with BV-2 [2], 44.2%. Besides, in series [3], the viability at 24 h, 2.5 ug/ml stood at 90.3%.

Take `COc1cncc(/C=C2\CCc3ccc(F)cc3C2=O)c1`: the Activity with BV-2 [1] was 33.3%; with BV-2 [2], 46.4%. Further, in series [3], the viability at 24 h, 2.5 ug/ml came to 94.4%.

With `COc1ccc(/C=C2\CCc3ccc(Br)cc3C2=O)cn1`, the Activity with BV-2 [1] is on record as 32.5%; in the series with BV-2 [2], 45.5%. Also, the viability at 24 h, 2.5 ug/ml in series [3] came out at 89.5%.

For the compound `COc1cccc(-c2nc(N)nc3c2CCc2ccc(F)cc2-3)c1`, the Activity in the series with BV-2 [1] is 53.8%; with BV-2 [2], 66.6%. Further, the viability at 24 h, 2.5 ug/ml in [3] was found to be 95%.

On to `COc1cncc(-c2nc(N)nc3c2CCc2ccc(OC)cc2-3)c1`, for which the figures for the Activity in the series on BV-2 [1] and in the series with BV-2 [2] were 47.3% and 53.8%, respectively. Also, the viability at 24 h, 2.5 ug/ml in [3] amounted to 94.7%.

`COc1cccc(/C=C2\CCc3ccc(F)cc3C2=O)n1`: the results for the Activity in the series with BV-2 [1] and with BV-2 [2] were 41.7% and 61.1%, respectively. In addition, in series [3], the viability at 24 h, 2.5 ug/ml came out at 85.8%.

In the case of `COc1cc(-c2nc(N)nc3c2CCc2ccc(Br)cc2-3)cc(OC)c1OC`, the Activity with BV-2 [1] is 39.9%; in the series with BV-2 [2] it was 43.7%. In addition, in series [3], the viability at 24 h, 2.5 ug/ml stood at 93.1%.

Consider `COc1cncc(-c2nc(N)nc3c2CCc2ccc(F)cc2-3)c1`, for which the Activity in the series on BV-2 [4] was 30.7%; with BV-2 [5] it was “Dde”; in the series with BV-2 [1], 60.8%; in the series on BV-2 [6], “Dde”; in the series on BV-2 [2] it was 80.2%; in the series with BV-2 [7] it was “Dde”. Further, the Activity in the series with BV-2 [8] is 70.7%; in the series on BV-2 [9], “Dde”; with BV-2 [10] it was 54.8%; in the series with BV-2 [11] it was 13%. Besides, the viability at 24 h, 2.5 ug/ml in series [3] was 97.4%.

For `COc1cncc(/C=C2\CCc3ccc(Br)cc3C2=O)c1`, the Activity in the series on BV-2 [1] worked out at 35.9%; in the series on BV-2 [2] it was 47%. For the same compound, the viability at 24 h, 2.5 ug/ml in series [3] stood at 94.9%.

As for `COc1ccc2c(c1)C(=O)/C(=C/c1ccc(OC)cc1C(F)(F)F)CC2`, the Activity in the series on BV-2 [1] is on record as 40%; in the series with BV-2 [2], 44.9%. For the same compound, the viability at 24 h, 2.5 ug/ml in series [3] came to 88.3%.

Consider `COc1cccc(/C=C2\CCc3ccc(F)cc3C2=O)c1`, for which the figures for the Activity with BV-2 [1] and with BV-2 [2] were 34% and 35.2%, respectively. Moreover, in series [3], the viability at 24 h, 2.5 ug/ml is 90.3%.

As to `COc1cccc(/C=C2\CCc3ccc(Br)cc3C2=O)n1`, the Activity in the series on BV-2 [1] amounted to 31.9%; in the series with BV-2 [2], 44.9%. The viability at 24 h, 2.5 ug/ml in [3] turned out to be 94.7%.

For `COc1ccc2c(c1)-c1nc(N)nc(-c3ccc(OC)cc3C(F)(F)F)c1CC2`, the Activity in the series on BV-2 [1] is 38.2%; in the series with BV-2 [2], 54.3%. Moreover, in [3], the viability at 24 h, 2.5 ug/ml was 89.9%.

As to `COc1cc(OC)cc(-c2nc(N)nc3c2CCc2ccc(F)cc2-3)c1`, the Activity in the series on BV-2 [1] worked out at 45.3%; in the series on BV-2 [2], 51.7%. For the same compound, the viability at 24 h, 2.5 ug/ml in series [3] came to 95.4%.

For the compound `S=C(S)N1CCCC1` [PYRROLIDINE DITHIOCARBAMATE], the Activity is given as 55.9% in the series with BV-2 [1] and 64% in the series with BV-2 [2].

`COc1ccc2c(c1)-c1nc(N)nc(-c3ccc(OC)nc3)c1CC2`: the Activity in the series with BV-2 [1] was determined as 42.7%; in the series on BV-2 [2], 43.7%. The viability at 24 h, 2.5 ug/ml in [3] was 87.5%.

Regarding `COc1cc(/C=C2\CCc3ccc(Br)cc3C2=O)cc(OC)c1OC`, the Activity in the series with BV-2 [1] is listed as 33.1%; in the series with BV-2 [2] it was 35.9%. Moreover, the viability at 24 h, 2.5 ug/ml in [3] worked out at 93.5%.

On to `COc1ccc2c(c1)-c1nc(N)nc(-c3cccc(OC)n3)c1CC2`, for which the Activity with BV-2 [1] amounted to 44.9%; in the series with BV-2 [2] it was 44.1%. The viability at 24 h, 2.5 ug/ml in series [3] was determined as 94.8%.

In the case of `COc1ccc(/C=C2\CCc3ccc(F)cc3C2=O)cn1`, the Activity came out at 34.3% in the series with BV-2 [1] and 47% with BV-2 [2]. Further, in [3], the viability at 24 h, 2.5 ug/ml was found to be 92.7%.

Take `COc1ccc2c(c1)C(=O)/C(=C/c1ccc(OC)c(C(F)(F)F)c1)CC2`: the Activity was determined as 32.8% with BV-2 [1] and 44.4% in the series on BV-2 [2]. Moreover, the viability at 24 h, 2.5 ug/ml in [3] came to 94.4%.

With `COc1cc(/C=C2\CCc3ccc(F)cc3C2=O)cc(OC)c1`, the results for the Activity in the series with BV-2 [1] and with BV-2 [2] were 40.8% and 46.1%, respectively. Also, the viability at 24 h, 2.5 ug/ml in [3] was found to be 87.8%.

For `COc1cncc(/C=C2\CCc3ccc(OC)cc3C2=O)c1`, the Activity with BV-2 [1] turned out to be 29.7%; with BV-2 [2], 43.7%. Further, the viability at 24 h, 2.5 ug/ml in [3] was determined as 92.3%.

Take `COc1ccc2c(c1)C(=O)/C(=C/c1ccc(OC)nc1)CC2`: the Activity is recorded as 23.8% in the series on BV-2 [1] and 45% in the series on BV-2 [2]. In addition, the viability at 24 h, 2.5 ug/ml in series [3] was 93.1%.

With `COc1ccc2c(c1)C(=O)/C(=C/c1cccc(OC)n1)CC2`, the Activity worked out at 40.6% in the series on BV-2 [1] and 54% in the series on BV-2 [2]. In addition, in series [3], the viability at 24 h, 2.5 ug/ml turned out to be 90.4%.

Take `COc1cncc(-c2nc(N)nc3c2CCc2ccc(Br)cc2-3)c1`: the values for the Activity in the series with BV-2 [1] and in the series with BV-2 [2] were 49.4% and 43.3%, respectively. Besides, the viability at 24 h, 2.5 ug/ml in series [3] came out at 93.2%.

Consider `COc1cccc(-c2nc(N)nc3c2CCc2ccc(Br)cc2-3)n1`, for which the figures for the Activity with BV-2 [1] and in the series on BV-2 [2] were 44.8% and 55.8%, respectively. Further, in series [3], the viability at 24 h, 2.5 ug/ml was found to be 88.9%.

In the case of `COc1ccc(-c2nc(N)nc3c2CCc2ccc(F)cc2-3)cn1`, the Activity is 43.3% in the series with BV-2 [1] and 43.9% in the series with BV-2 [2]. Moreover, the viability at 24 h, 2.5 ug/ml in series [3] came out at 89.6%.

On to `COc1cccc(-c2nc(N)nc3c2CCc2ccc(F)cc2-3)n1`, for which the Activity in the series on BV-2 [1] is recorded as 50.3%; with BV-2 [2], 66.9%. Further, the viability at 24 h, 2.5 ug/ml in [3] stood at 95.4%.

As to `COc1ccc(-c2nc(N)nc3c2CCc2ccc(Br)cc2-3)cn1`, the results for the Activity in the series with BV-2 [1] and with BV-2 [2] were 43.8% and 40.6%, respectively. In addition, in series [3], the viability at 24 h, 2.5 ug/ml was determined as 95.4%.

Turning to `COc1ccc(-c2nc(N)nc3c2CCc2ccc(F)cc2-3)cc1C(F)(F)F`, the figures for the Activity with BV-2 [1] and with BV-2 [2] were 42.4% and 43%, respectively. The viability at 24 h, 2.5 ug/ml in series [3] was found to be 91%.
